Values joined by “and” are separate entries in the source; they are usually repeats but may differ in a detail not shown here. Equal entries are not always repeated.
Experiments:
[1] = system: guinea pig skin; assay: Cutaneous irritation (Draize, Primary Irritation Index) after SADBE dermal patch in guinea pig; type: in vivo; details: for time to return to non-irritating levels post-dermal-application / time of peak cutaneous irritation: re-challenge
Procedure: Thirty (30) guinea pigs (15 female and 15 male) were utilized for this nonGLP study. Prior to and post dosing (dermal patches loaded with 20 microliters of 2, 6, or 18% SADBE drug solution) body weights, group food consumption, and Draize scoring for erythema, eschar formation, and edema at the dose site were be recorded. The dermal patch loaded with SADBE was applied to animals, and left in place for ˜12 hours plus/minus 1 hour. Following the ˜12 hour dosing period, patch sites was assessed by Draize scoring. […] After the 28 days assessment period, re challenge was performed, a second patch (not treated during the induction phase) was applied and assessed by Draize scoring.
Cutaneous irritation at the test site was observed and scored each day of the study by the Draize Scale for both Erythema & Eschar and Edema. The scale for each is in Tables 9 and 10, each on a 0-4 scale. The cumulative Erythema & Eschar and Edema score was the Primary Irritation Index score, which would therefore be on a 0-8 scale.
To assess the effect of the test article, SADBE (2%, 6%, and 18% in DMSO), on cutaneous skin irritation potential and sensitivity in guinea pig, Draize scoring system was used for dose site evaluation for erythema and eschar responses and for Edema. The test article (20 ul) was loaded on a dermal patch and applied to shaved guinea pig skin for 12 hrs (induction phase). The first dose site evaluation was performed for 30 days post application. A second dose was applied and dose site evaluation was also performed for approximately 5 weeks (challenge phase).
The Primary Irritation Index (pII) for each test article dose was calculated to assess the irritation potential. The Primary Irritation Index (pII) is the mean of the primary irritation score. The primary irritation score is the sum of the erythema/eschar score and the edema score, resulting in a maximal irritation potential of 8. The daily primary irritation index (pII) for each test article dose over the course of the study was calculated (FIG. 4). The pII is used to categorize the test article treatments as negligible to not irritating (0-0.9), slight (0.9-1.9), moderate (2-4.9) or severe (5-8) irritation potential. […] (FIG. 4.)

[2] = system: common warts and alopecia areata; details: solutions of 0.05% to 2.0% weight/volume, vehicle almost always acetone, applied repeatedly (Buckley et al., Lee et al.); cited from earlier work
[3] = HPLC analysis of test article vials and patch controls in air (guinea pig study); type: physicochemical
Procedure: Squaric acid dibutyl ester (SADBE) at 2% (w/v) concentration in dimethylsulfoxide (DMSO) was added to a skin patch for dermal dosing of SADBE to test for a delayed-type hypersensitivity response or other skin irritation. In the laboratories of Squarex HPLC analysis was conducted to analyze for SADBE content, for analysis of the dose formulation prepared by APS and to determine stability of the test article in the dermal patches during the application time and to test for residual SADBE in the dermal patches after 12 hours applied to the animals.
The skin patches consisted of a polymer backing layer similar to 3M 9916 polyester nonwoven backing layer with adhesive, 3M 9733 polyester film laminate barrier layer, and Precision Fabrics Group 0700-00010 polyester gauze layer. The gauze was heat sealed to the barrier layer. The gauze patch area was 1.53 cm^2.
(§1) The tubes of DMSO with patches were transported to the Squarex laboratory, shaken at 200 rpm for 1 hour or more, and then the DMSO from each tube was placed in an injection vial and analyzed for SADBE content by HPLC on a C18 column with the program SADBE3-50 ul. SADBE elutes in this program at about 24.0 minutes and absorbs at 255 nm, so the area of the 24.0 min peak at 255 nm was used to quantify SADBE. The SADBE degradation product squaric acid monobutyl ester (SAMBE) was also quantified by 255 nm area under the curve at the elution time of 12.7 minutes.
The test article vials of 2%, 6%, and 18% SADBE dissolved in DMSO complied with specifications and had the predicted concentrations of SADBE at 24 hours after preparation.
The results indicated the SADBE was stable for more than 12 hours in the patches when not exposed to animal skin. There was no apparent loss of SADBE or conversion of SADBE to SAMBE.

[4] = system: herpes labialis (cold sores or oral herpes); details: cited from earlier work
[5] = Residual SADBE and SAMBE in patches after 12 hours on mini-pigs; type: in vivo, Gottingen miniswine; details: for SADBE as % of expected (remaining in patch): 12 hours on mini-pigs
Procedure: as §1, with “Patches were removed from the pigs at the indicated times and immediately the reservoir portion of the patch was cut out and placed in a 50 ml tube with 10 ml of DMSO. The tubes” for “The tubes”, “rpm for 30 minutes to overnight, and then” for “rpm for 1 hour or more, and then”

[6] = 2% patch control, 20 ul, >12 hours in air
[7] = 2% vial, SADBE in DMSO, 24 hours after preparation
[8] = 6% patch control, 20 ul, >12 hours in air
[9] = 6% vial, SADBE in DMSO, 24 hours after preparation
[10] = 18% patch control, 20 ul, >12 hours in air
[11] = 18% vial, SADBE in DMSO, 24 hours after preparation

CCCCOc1c(OCCCC)c(=O)c1=O [SADBE, squaric acid dibutyl ester]
irritation category by Primary Irritation Index (pII) ([1]; 2% SADBE, 20 ul patch, 12 h, first dose): slightly irritating
duration of slight cutaneous irritation ([1]; 2% SADBE, induction): > 17 days
time to return to non-irritating levels post-dermal-application ([1]; 2% SADBE): ~9 days
irritation category by Primary Irritation Index (pII) ([1]; 2% SADBE, re-challenge (second dose)): moderately irritating
duration of slight to moderate cutaneous irritation ([1]; 2% SADBE, re-challenge at naive site): ~5 days
irritation category by Primary Irritation Index (pII) ([1]; 6% SADBE, 20 ul patch, 12 h, first dose): moderately irritating
duration of moderate cutaneous irritation ([1]; 6% SADBE, induction): ~18 days
time to return to slight irritation and not irritating levels ([1]; 6% SADBE, induction): ~23 days
time of peak cutaneous irritation ([1]; 6% SADBE): ~5 days
time to return to non-irritating levels post-dermal-application ([1]; 6% SADBE): ~14 days
irritation category by Primary Irritation Index (pII) ([1]; 6% SADBE, re-challenge (second dose)): moderately irritating
irritation category by Primary Irritation Index (pII) ([1]; 18% SADBE, 20 ul patch, 12 h, first dose): severely irritating
duration of moderate to severe cutaneous irritation ([1]; 18% SADBE, induction): ~21 days
time to return to slight irritation and not irritating levels post-dosing ([1]; 18% SADBE, induction): ~27 days
time of peak cutaneous irritation ([1]; 18% SADBE): ~8 days
time to return to non-irritating levels post-dermal-application ([1]; 18% SADBE): ~19 days
irritation category by Primary Irritation Index (pII) ([1]; 18% SADBE, re-challenge (second dose)): moderately irritating
treatment of common warts and alopecia areata [2]: used successfully
% of expected SADBE [3, 6]: 106.0%
SAMBE as percent of SADBE [3, 6]: 0.95%
% of expected SADBE [3, 7]: 97.5%
SAMBE as percent of SADBE [3, 7]: 0.84%
% of expected SADBE [3, 8]: 94.5%
SAMBE as percent of SADBE [3, 8]: 1.05%
% of expected SADBE [3, 9]: 102.9%
SAMBE as percent of SADBE [3, 9]: 0.83%
% of expected SADBE [3, 10]: 100.3%
SAMBE as percent of SADBE [3, 10]: 1.01%
% of expected SADBE [3, 11]: 97.7%
SAMBE as percent of SADBE [3, 11]: 0.91%
time SADBE was stable in the patches ([3]; patches not exposed to animal skin, no apparent loss or conversion to SAMBE): more than 12 hours
time for which a single dose to the arm prevents outbreaks ([4]; SADBE-DMSO solution (Palli et al., Chang et al.)): ≥ 3 months
number of cold sore outbreaks ([4]; single dose applied to the arm, for about four months (Palli et al., Chang et al.)): significantly decrease number of cold sore outbreaks
SADBE apparently transferred into the mini pig skin ([5]; 2% patches, 12 hours): about 89%
SADBE as % of expected (remaining in patch) ([5]; 2% patches, individual animals): 7.0% and 14.6%
SADBE as % of expected (remaining in patch) ([5]; 6% patches, average of 2 animals): 35% and 35.4%
SADBE as % of expected (remaining in patch) ([5]; 6% patches, individual animals): 29.9% and 40.8%
SADBE as % of expected (remaining in patch) ([5]; 18% patches, average of 2 animals): 65% and 65.5%
SADBE as % of expected (remaining in patch) ([5]; 18% patches, individual animals): 65.2% and 65.8%

Source: US20210393932A1, “DERMAL PATCHES AND GLASS SWABS FOR APPLICATION OF TOPICAL IMMUNOSENSITIZERS” (Squarex, LLC, priority 2020, published 2021)
